# From article PMC9506480, “Synthesis and Evaluation of Antiproliferative Activity, Topoisomerase IIα Inhibition, DNA Binding and Non-Clinical Toxicity of New Acridine–Thiosemicarbazone Derivatives” (Pharmaceuticals, 2022)
# Tests used:
# [1] = test system: CT DNA; assay: CT DNA binding by UV–Vis absorption spectroscopy; set-up: species or system calf; details: compound 40 µM, CT DNA 0 to 60 µM, Tris-HCl pH 7.4
# Procedure: Absorption spectroscopy is a convenient and simple method for probing the binding of small molecules to DNA. The interaction of selected acridine–thiosemicarbazone derivatives with CT DNA was studied in the 220–500 nm region. Binding constants (Kb) were calculated from [DNA]/(Ɛa − Ɛf) versus [DNA], in which Kb is given by the ratio of slope to the intercept. […] For this, the regions chosen were the ones with the highest absorption intensity above 300 nm, due to the lower interference in DNA absorption in this region (ESI, Figures S50 and S53).
# The concentration of the calf thymus, Type I, fibers (CT DNA), was determined based on the extinction coefficient of the absorbance at 260 nm (6600 L mol^−1 cm^−1). All compounds were dissolved in methanol (HPLC grade) at a concentration of 1 mmol L^−1 (stock solution). Working solutions were prepared by diluting the stock solution using Tris-HCl buffer (pH 7.4), with concentrations of 40 µmol L^−1. Under the optimized concentration, the compounds were titered with increasing concentrations of CT DNA (5 to 60 µmol L^−1). After shaking the system and incubating at room temperature for 10 min, the measurements were recorded using a JASCO J818 spectropolarimeter in the range of 220 to 500 nm at 298 K. The intrinsic bond constant (Kb) was obtained by adjusting the data according to the equation below:[DNA]/(Ɛa − Ɛf) = [DNA]/(Ɛb − Ɛf) + 1/[Kb (Ɛb − Ɛf)] where Ɛa, Ɛb and Ɛf are the apparent extinction coefficient of the compounds, the extinction coefficient of the compounds found in their […] and the extinction coefficient of the compounds when fully DNA-bound, respectively. The graph of [DNA]/(Ɛa − Ɛf) versus [DNA] was used to obtain the Kb from the ratio between the slope and the intercept, as previously described in the literature. Binding data were obtained using SigmaPlot 10.0 software. The study of possible DNA denaturation using methanol–water solutions was evaluated up to the maximum final concentration of methanol in the assays (6%) (ESI, Figures S50 and S53).
# [2] = test system: HCT116 (human colon carcinoma); set-up: method as in Silva et al. (2018) [67]; details: ref Silva et al. (2018) [67]; cited from earlier work
# [3] = test system: HepG2 (human hepatocellular carcinoma); set-up: method as in Silva et al. (2018) [67]; details: ref Silva et al. (2018) [67]; cited from earlier work
# [4] = test system: B16-F10 (murine melanoma); set-up: method as in Silva et al. (2018) [67]; details: ref Silva et al. (2018) [67]; cited from earlier work
# [5] = test system: MRC-5 (human lung fibroblast); set-up: method as in Silva et al. (2018) [67]; details: ref Silva et al. (2018) [67]; cited from earlier work
SMILES,Hypochromic (%) [1] [%],IC50 [2] [µM],IC50 [3] [µM],IC50 [4] [µM],IC50 [5] [µM]
"CC[n+]1c(-c2ccccc2)c2cc(N)ccc2c2ccc(N)cc21 [EtBr, ethidium bromide, reference compound]",35.15,–,–,–,–
"O=c1[nH]cc(F)c(=O)[nH]1 [5-FU, 5-fluorouracil]",–,4.1,1.3,3.5,57.9
